Patent publication US6288051A, “7 α-(5-methylaminopentyl)-estratrienes, process for their production, pharmaceutical preparations that contain these 7 α(5-methylaminopentyl)-estratrienes as well as their use for the production of pharmaceutical agents” (Schering Aktiengesellschaft, priority 1996, dated 2001)
Where two headings read alike, the source gives them in different places.

How the values were obtained:
[1] = tested on: MVLN cells; experiment: Transactivation assay, MVLN cells transfixed with reporter gene Vit-TK-LUC; type: cell-based; conditions: Homo sapiens, read-out: IC50 [nM] MVLN cells
Description: (§1) The antiestrogenic action of the compounds according to the invention was determined in transactivation assays [Demirpence, E.; Duchesne M.-J.; Badia, E.; Gagne, D. and Pons, M.: MVLN Cells: A Bioluminescent MCF-7-Derived Cell Line to Study the Modulation of Estrogenic Activity; J. Steroid. Molec. Biol. Vol. 46, No. 3, 355-364 (1993) as well as Berry, M.; Metzeger D.; Chambon, P.: Role of the Two Activating Domains of the Estrogen Receptor in the Cell-type and Promoter-context Dependent Agonistic Activity of the Anti-estrogen 4-Hydroxytamoxifen; The EMBO Journal Vol. 9, 2811-2818 (1990)].
The IC50 values for the new compounds lie in the nanomolar range. […] The HeLa cells are transfixed with human estrogen receptor-expression vector (HEGO) and Vit-TK-CAT reporter genes, and the MVLN cells are transfixed with reporter gene Vit-TK-LUC: […]

[2] = target: T1, human estrogen receptor (Homo sapiens, UniProt P03372); experiment: Transactivation assay, HeLa cells transfixed with human estrogen receptor-expression vector (HEGO) and Vit-TK-CAT reporter gene; type: cell-based
T1 construct: expressed in transfected cells; host or cells: HeLa
T1 sequence (P03372 1-595): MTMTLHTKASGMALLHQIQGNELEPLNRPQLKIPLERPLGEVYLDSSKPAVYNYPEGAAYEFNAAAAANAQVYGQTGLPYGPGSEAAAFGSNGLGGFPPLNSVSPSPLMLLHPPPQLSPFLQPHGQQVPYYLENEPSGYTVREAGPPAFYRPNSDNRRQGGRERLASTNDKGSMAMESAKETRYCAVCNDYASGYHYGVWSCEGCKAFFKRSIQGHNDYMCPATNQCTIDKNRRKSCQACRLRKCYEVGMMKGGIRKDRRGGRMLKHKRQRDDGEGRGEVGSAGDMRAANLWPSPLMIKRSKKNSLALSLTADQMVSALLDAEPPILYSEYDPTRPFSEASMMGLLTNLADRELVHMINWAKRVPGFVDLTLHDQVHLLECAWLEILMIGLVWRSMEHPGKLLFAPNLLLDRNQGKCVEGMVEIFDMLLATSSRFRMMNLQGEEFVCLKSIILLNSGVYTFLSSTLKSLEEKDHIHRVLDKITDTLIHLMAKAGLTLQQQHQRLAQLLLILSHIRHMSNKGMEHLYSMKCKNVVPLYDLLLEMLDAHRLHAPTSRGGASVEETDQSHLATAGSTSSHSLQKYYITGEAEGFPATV
Description: as §1
The HeLa cells are transfixed with human estrogen receptor-expression vector (HEGO) and Vit-TK-CAT reporter genes, and the MVLN cells are transfixed with reporter gene Vit-TK-LUC: […]

[3] = tested on: NMU-induced breast cancer; experiment: NMU-induced breast cancer in rats; type: in vivo, rat
Text: 2.3 NNMU^+ -induced breast cancer in rats
2.3 Influencing of Tumor Growth in the NMU^+ Model in Rats (MM Tumor Model)
^+ N-Methyl-N-nitrosourea
The growth of the NMU-induced breast neoplasm of rats is largely dependent on estrogens and, in contrast to the DMBA tumor model, less on prolactin. Active antiestrogens, aromatase inhibitors, and antigestagens lead to the inhibition of tumor growth. Substances with antigonadotrophic properties also exert a tumor-inhibiting action.
Female rats (Sprague-Dawley)
NMU=i.v., test substance: s.c./p.o. […]
p.o. = 0.1 or 0.2 ml/100 g/d in ethanol + peanut oil (1 + 9)
s.c. = 0.1 ml/100 g/d in ethanol + peanut oil (1 + 9)
The animals receive 50 mg/kg of NMU i.v. on a one-time basis. Then, the animals are examined once a week by palpation for tumor development. About 6-8 weeks after NMU treatment, one or more tumors develop per animal. At a minimum size of 150 mm^2 /tumor/animal, daily treatment (7× a week) begins with the test substance, and the determination of body weight+tumor size is done (with the aid of a sliding gauge) (1×/week).
(§2) The values that are found are tested for significance in the Dunnett Test and are plotted graphically.

[4] = tested on: MXT breast neoplasm; experiment: Tumor-inhibiting effect on hormone-dependent MXT(+) breast cancer in mice; type: in vivo, mouse; conditions: oral
Text: 2.1 MXT breast neoplasm in mice 2.1. Tumor-Inhibiting Effect on Hormone-Dependent […] Cancer in Mice Principle of the Method The MXT(+)-breast cancer is an estrogen- and progesterone receptor-positivetumor that was originally produced by induction with urethane and is then transplanted onward in series. Growth can be inhibited by ovariectomy and antiestrogens. This model is therefore very well suited for studying the tumor-inhibiting action of endocrinotherapeutic agents. Execution of the Test Animal Material Adult, female BDFI-mice (7-10 weeks old; weight 18-21 g). Standard care conditions. Formulation and Administration of Test Substances The test substances are dissolved in ethanol+peanut oil (1+9), and the one-time dose is administered at a volume of 0.1 ml s.c. In the case of oral administration, the test substance is dissolved in ethanol+peanut oil (1+9), and the daily dose is administered at a volume of 0.1 ml. The treatment begins either immediately after tumor implantation or 2-3 weeks thereafter (treatment of established tumors). […] Tumor growth is determined by ascertaining the tumor surface area with the aid of a sliding gauge. The tumor surface area is calculated from the product of the longest diameter and the tumor diameter that is perpendicular to said longest diameter. […] Analysis Average values ±SE of tumor surface areas are determined. […]

[5] = tested on: uterus growth (estradiol benzoate); experiment: Uterus growth test in infantile rats (antiestrogenic action); type: in vivo, rat; conditions: differences highly significant (FIG. 1 and 2)
Text: 1. Uterus growth test in infantile rats, s.c. and p.o. (test for antiestrogenic action)
1. Uterus Growth Test in Infantile Rats (Antiestrogenic Action)
In rodents, the uterus reacts to the administration of estrogens with an increase in weight (both proliferation and water retention). This growth is to be inhibited in a dose-dependent-manner by simultaneous administration of compounds with an antiestrogenic action.
Infantile female rats at a weight of 35-45 g at the beginning of the test, 5-6 animals per dose.
Formulation and Administration of the Substances: […]
Both for s.c. and for p.o. administration, the substances are dissolved in 1 part of ethanol (E) and made up with 9 parts of peanut oil (EO).
Young rats that have just been weaned from their mothers are delivered one day before the beginning of treatment for acclimatization and are immediately supplied with food--still in the animal cage. […] The wet weights (without contents) are determined from the prepared uteri. […]
For each group, the average values with standard deviation (X+SD), as well as the significance of the differences compared to the control group (EB) in the Dunnett Test (p<0.05), are determined from the relative organ weights (mg/100 g of body weight). […] The relative effects of the test substances are determined by covariance and regression analysis.

[6] = tested on: DMBA-induced breast cancer; experiment: DMBA-induced breast cancer in rats; type: in vivo, rat; conditions: for inhibition of tumor growth: oral, 3 mg/kg/day (FIG. 4)
Text: 2.2 DMBA*-induced breast cancer in rats
2.2. Influencing Tumor Growth in the […] Model in Rats (DMBA Tumor Model)
*9,10-Dimethyl-1,2-benanthracene
The growth of the DMBA-induced breast neoplasm of rats is largely dependent on estrogens and prolactin. Active antiestrogens, antigestagens, and aromatase inhibitors result in the inhibition of tumor growth, and substances that have antigonadotropic and androgenic properties also exert a tumor-inhibiting action.
45-47-day-old female rats (Sprague-Dawley, breeder ZiH or Mollegard), 8-10 animals per group.
The animals receive 10 mg of DMBA orally on a one-time basis. Then, the animals are examined weekly by palpation for tumor development. Six to 10 weeks after DNBA treatment, approximately 1 to 10 tumors develop per animal. The tumor size is determined once a week with the aid of a sliding gauge. If at least one tumor has reached a specific size (150 mm^2 of tumor surface area), an ovariectomy is performed on the animals, or the treatment of the animals with the test substance begins. The treatment is carried out in most cases daily for a period of about 28 days (for details on execution, see Test Plan). The tumor size is subsequently determined once a week.
The total tumor size per animal is determined before the beginning of treatment (initial values). For each group, the average values of the percentage changes of the tumor size relative to the initial value are then calculated. In addition, the percentage of animals per group is determined, whose tumors in each case: (1) have totally disappeared (total regression); partially disappeared (partial regression); (3) are unchanged (no change); or (4) are further enlarged (enlargement).
as §2

CN(CCCCC[C@@H]1Cc2cc(O)ccc2[C@H]2CC[C@]3(C)[C@@H](O)CC[C@H]3[C@H]12)CCC[S+]([O-])CCCC(F)(F)C(F)(F)F (stereo partly drawn) [Example 6, 7α-{5-[N-Methyl-N-3-(4,4,5,5,5-pentafluoropentanesulfinyl)-propylamino]-pentyl}-estra-1,3,5(10)-triene-3,17β-diol]
IC50 ([1]; MVLN): 1 nM
IC50 [2]: 0.1 nM

CN(CCCCC[C@@H]1Cc2cc(O)ccc2[C@H]2CC[C@]3(C)[C@@H](O)CC[C@H]3[C@H]12)CCCSCCCC(F)(F)C(F)(F)F [Example 1, 7α-{5-[N-Methyl-N-3-(4,4,5,5,5-pentafluoropentylthio)-propylamino]-pentyl}-estra-1,3,5(10)-triene-3,17β-diol]
IC50 ([1]; MVLN): 1 nM
activity compared to 7α-[9-(4,4,5,5,5-pentafluoropentanesulfinyl)-nonyl]-estra-1,3,5(10)-triene-3,17β-diol ([3]; NMU, oral): clearly more strongly active
inhibition of tumor growth ([3]; oral, 10 mg/kg/day): complete inhibition of tumor growth
inhibition of tumor growth, dose dependence ([3]; orally administered (FIG. 5)): inhibits tumor growth in a dose-dependent manner
inhibition of tumor growth ([4]; 14 days of treatment, 10 mg/kg/day (FIG. 3)): inhibits tumor growth as strongly as an ovariectomy
activity compared to 7α-[9-(4,4,5,5,5-pentafluoropentanesulfinyl)-nonyl]-estra-1,3,5(10)-triene-3,17β-diol ([4]; MXT, 14 days, 10 mg/kg/day): more strongly active
relative antiestrogenic activity vs 7α-[9-(4,4,5,5,5-pentafluoropentanesulfinyl)-nonyl]-estra-1,3,5(10)-triene-3,17β-diol ([5]; oral administration): 4.7 times
relative antiestrogenic activity vs 7α-[9-(4,4,5,5,5-pentafluoropentanesulfinyl)-nonyl]-estra-1,3,5(10)-triene-3,17β-diol ([5]; subcutaneous administration): 5.4 times
IC50 [2]: 0.3 nM
activity compared to tamoxifen (TAM) ([6]; DMBA, oral (FIG. 4)): even more strongly active than tamoxifen (TAM)
inhibition of tumor growth [6]: completely inhibits tumor growth (no growth)

C#C[C@]1(O)CC[C@H]2[C@@H]3[C@H](CCCCCN(C)CCCSCCCC(F)(F)C(F)(F)F)Cc4cc(O)ccc4[C@H]3CC[C@@]21C [Example 3, 17α-Ethinyl-7α-{5-[N-methyl-N-3-(4,4,5,5,5-pentafluoropentylthio)-propylamino]-pentyl}-estra-1,3,5(10)-triene-3,17β-diol]
IC50 ([1]; MVLN): 0.6 nM
IC50 [2]: 1 nM

CN(CCCCC[C@@H]1Cc2cc(O)ccc2[C@H]2CC[C@]3(C)[C@@H](O)CC[C@H]3[C@H]12)CCS(=O)(=O)CCCC(F)(F)C(F)(F)F [Example 4, 7α-{5-[N-Methyl-N-2-(4,4,5,5,5-pentafluoropentanesulfonyl)-ethylamino]-pentyl}-estra-1,3,5(10)-triene-3,17β-diol]
IC50 ([1]; MVLN): 1.3 nM
IC50 [2]: 0.16 nM

CN(CCCCC[C@@H]1Cc2cc(O)ccc2[C@H]2CC[C@]3(C)[C@@H](O)CC[C@H]3[C@H]12)CCCS(=O)(=O)CCCC(F)(F)C(F)(F)F [Example 5, 7α-{5-[N-Methyl-N-3-(4,4,5,5,5-pentafluoropentanesulfonyl)-propylamino]-pentyl}-estra-1,3,5(10)-triene-3,17β-diol]
IC50 ([1]; MVLN): 0.66 nM
IC50 [2]: 0.3 nM

CN(CCCCC[C@@H]1Cc2cc(O)ccc2[C@H]2CC[C@@]3(C)[C@@H](CC[C@]3(C)O)[C@H]12)CCCSCCCC(F)(F)C(F)(F)F [Example 2, 17α-Methyl-7α-{5-[N-methyl-N-3-(4,4,5,5,5-pentafluoropentyl-thio)-propylamino]-pentyl}-estra-1,3,5(10)-triene-3,17β-diol]
IC50 ([1]; MVLN): 0.6 nM
IC50 [2]: 0.2 nM

C[C@]12CC[C@@H]3c4ccc(O)cc4C[C@@H](CCCCCCCCC[S+]([O-])CCCC(F)(F)C(F)(F)F)[C@H]3[C@@H]1CC[C@@H]2O (stereo partly drawn) [Reference, 7α-[9-(4,4,5,5,5-pentafluoropentanesulfinyl)-nonyl]-estra-1,3,5(10)-triene-3,17β-diol, reference compound]
IC50 ([1]; MVLN cells, Vit-TK-LUC): 6 nM
inhibition of tumor growth [6]: only a slight action
